Experimental data reported in patent US20250213496A1, “LIPID NANOPARTICLES AND PREPARATION METHODS AND USE THEREOF” (priority 2022, published 2025).

Experiment: HPLC quantification of retinoid compound in LNP (encapsulation efficiency)
Type: physicochemical
Conditions: HPLC after diluting LNP with ethanol; AM80 275 nm, ATRA 350 nm
Experimental: The content of the retinoid compound in the LNP is determined by high performance liquid chromatography (HPLC), including: preparing a gradient dilution standard solution of ATRA or AM80, establishing the HPLC method, sequentially injecting 100 μL of different concentrations of the standard solution, and plotting the standard curve by using the ultraviolet absorption peak areas of different concentrations of ATRA or AM80. The five-component LNP is broken by ethanol with a volume more than 10 times the volume of the LNP, and the volume of each injection is controlled to be 100 μL; the peak area is substituted into the standard curve to obtain the content of ATRA or AM80 in the lipid solution.
Chromatographic conditions: Sunfire C18 column (150 mm×4.6 mm, 5 μm), column temperature (25° C.), mobile phase A (acetonitrile), mobile phase B (0.1 M triethylamine acetate buffer solution with a pH of 7.0), flow rate of 1.0 mL/min, and injection volume of 100 μL each time.
The standard solutions of AM80 with different concentrations were prepared with ethanol, and HPLC injection and gradient elution were performed. […] After diluting LNP with the ethanol, HPLC injection was performed, the AM80 content in the LNP solution was quantified according to the absorption peak area at 275 nm, and an encapsulation efficiency of AM80 is 45%-65%. […]

Row | Compound | encapsulation efficiency of retinoid compound in LNP
1 | CC1(C)CCC(C)(C)c2cc(NC(=O)c3ccc(C(=O)O)cc3)ccc21 [AM80, tamibarotene] | 45%-65
2 | CC1=C(/C=C/C(C)=C/C=C/C(C)=C/C(=O)O)C(C)(C)CCC1 [ATRA, all-trans-retinoic acid] | 40%-70
